Reference: patent US20150344407A1, “FENDILINE DERIVATIVES AND METHODS OF USE THEREOF” (THE BOARD OF REGENTS OF THE UNIVERSITY OF TEXAS SYSTEM, priority 2012, published 2015)
Structures can show the parent of a compound that is named as a salt.

Experiments:
[1] = test system: phosphorylated ERK, a protein activated downstream of K-ras; assay: Western immunoblotting for pERK (inhibition of ERK activation); format: cell-based, canine; details: Canis lupus familiaris; 4 μM compound, 48 hours, MDCK cells stably expressing GFP-tagged K-rasG12V; whole cell lysates; normalized to vehicle-treated control; read-out: % Inhibition of ERK activation when treated with 4 μM compound
Experimental: (§1) To determine the effect of compounds on localization of K-ras, Mardine Darby canine kidney epithelial (MDCK) cells stably expressing GFP-tagged K-rasG12V (oncogenic K-ras) grown on cover slips were treated with vehicle or compound (4 μM) for 48 hours and fixed with 4% paraformaldehyde. The coverslips were mounted in Mowiol and imaged by confocal microscopy (Nikon A1) using a 60× objective. Images were analyzed by ImageJ software. Densitometric analysis was performed on images to determine the degree of K-ras mislocalization. To determine the effect of compounds on K-ras function, MDCK cells stably expressing GFP-tagged K-rasG12V were treated with vehicle or compound (4 μM) for 48 hours. Following treatment, whole cell lysates were prepared and subjected SDS-PAGE and western blotting to quantify the level of phosphorylated ERK, a protein activated downstream of K-ras. All calculations were normalized to vehicle-treated control.
Western Immunoblotting for pERK: 2×10^5 cells/well were seeded in 6-well cell culture plates. 24 h after seeding, fresh medium containing 1% vehicle (DMSO) or 4 μM test compound (1:100 dilution, such that DMSO was 1%) was added and incubated for 48 h. Cells were lysed in Buffer B (50 mM Tris [pH 7.5], 75 mM NaCl, 25 mM NaF, 5 mM MgCl2, 5 mM EGTA, 1 mM dithiothreitol, 100 μM NaVO4, 1% Nonidet P-40 plus protease inhibitors). SDS-PAGE and immunoblotting with the anti-phospho-p44/42 mitogen-activated protein kinase (MAPK) (ERK1/2) antibody was performed using 20 μg of each whole cell lysate. Signal was detected by enhanced chemiluminescence (SuperSignal; Pierce, Thermo Fisher Scientific, Rockford, Ill.) and imaged by FluorChemQ (Alpha Inotech, San Leandro, Calif.). Quantification of intensities was performed using FluorChemQ software. Results were normalized to vehicle-treated control.

[2] = biological target: T1, GFP-tagged K-rasG12V (oncogenic K-ras) in MDCK cells (Homo sapiens, UniProt P01116, G12V); assay: K-ras mislocalization, confocal fluorescence microscopy with densitometric analysis; format: cell-based, canine; details: 48 hours, MDCK cells stably expressing GFP-tagged K-rasG12V, normalized to vehicle-treated control; for inhibition at 4 µM: 4 μM compound, read-out: % Mislocalization of K-ras when treated with 4 μM compound
T1 construct: mGFP-tagged full length oncogenic mutant K-Ras (GFP-K-RasG12V); expressed in transfected cells
Experimental: FIGS. 1 & 2—Representative images showing degree of K-ras mislocalization with compound treatment (images corresponds with column 3 of Table 2). MDCK cells stably expressing GFP-tagged K-rasG12V were treated with vehicle or compound (4 μM) for 48 hours and fixed with 4% paraformaldehyde. The coverslips were mounted in Mowiol and imaged by confocal microscopy (Nikon A1) using a 60× objective. The number above each image corresponds the fendiline derivative code.
as §1
Fluorescence microscopy: 2×10^5 or 1×10^5 cells/well were seeded in 6- or 12-well cell culture plates, respectively, containing glass coverslips. 24 h after seeding, fresh medium containing 1% vehicle (Dimethyl sulfoxide, DMSO) or 4 μM test compound (1:100 dilution, such that DMSO was 1%) was added and incubated for 48 h, following which the cells were fixed with 4% paraformaldehyde and coverslips were mounted in Mowiol. Cells were imaged in the GFP wavelength (488 nm) using a confocal microscope (Nikon A1) with 60× objective. Images were saved in tagged imaged file format (tiff) and analyzed by ImageJ software. The densitometric ratio of plasma membrane localized K-Ras versus total K-Ras was calculated and normalized to vehicle-treated control.

Structure (SMILES)	inhibition at 4 µM [1] [%]	inhibition at 4 µM [2] [%]	% Mislocalization of K-ras when treated with 4 μM compound [2] [%]
CCC(NCC=C(c1ccccc1)c1ccccc1)c1ccccc1 (stereo not drawn) [Compound 29, 3,3-diphenyl-N-(1-phenylpropyl)prop-2-en-1-amine hydrochloride]	40.3	37	–
COC(=O)[C@@H](NC/C=C/c1ccccc1)c1ccccc1 [Compound 39, (S)-methyl 2-(cinnamylamino)-2-phenylacetate]	-10.2	6.72	–
O=C(CC(c1ccccc1)c1ccccc1)NCc1ccccc1 [Compound 05, N-benzyl-3,3-diphenylpropanamide]	–	4.01	–
C[C@@H](NC(=O)CC(c1ccccc1)c1ccccc1)c1ccccc1 [Compound 03, (R)-3,3-diphenyl-N-(1-phenylethyl)propanamide]	–	25.8	–
CC[C@@H](NCC=C(c1ccccc1)c1ccccc1)c1ccccc1 [Compound 46, (R)-3,3-diphenyl-N-(1-phenylpropyl)prop-2-en-1-amine]	54	37.5	–
C[C@@H](NCC=C(c1ccccc1)c1ccccc1)c1ccc(F)cc1 [Compound 45, (R)—N-(1-(4-fluorophenyl)ethyl)-3,3-diphenylprop-2-en-1-amine]	43.5	50	–
C[C@H](OC/C=C/c1ccccc1)c1ccccc1 [Compound 25, (S,E)-(1-(cinnamyloxy)ethyl)benzene]	56.8	33.9	–
C[C@@H](NC/C=C/c1ccc2ccccc2c1)c1ccccc1 [Compound 33, (R,E)-3-(naphthalen-2-yl)-N-(1-phenylethyl)prop-2-en-1-amine]	15.7	1.53	–
C[C@@H](NCC=C1c2ccccc2C=Cc2ccccc21)c1ccc(F)cc1 [Compound 58, (R)—N-(2 (5H-dibenzo[a,d][7]annulen-5-ylidene)ethyl)-1-(4-fluorophenyl) ethanamine]	-78.7	5.05	–
C[C@@H](OCC=C(c1ccccc1)c1ccccc1)c1ccccc1 [Compound 22, (R)-(3-(1-phenylethoxy)prop-1-ene-1,1-diyl)dibenzene]	-14.4	8.14	–
C[C@@H](NC/C=C/c1cccc2ccccc12)c1ccccc1 [Compound 32, (R,E)-3-(naphthalen-1-yl)-N-(1-phenylethyl)prop-2-en-1-amine]	31.7	12.5	–
COC(=O)[C@@H](NCC=C(c1ccccc1)c1ccccc1)c1ccccc1 [Compound 43, (S)-methyl 2-((3,3-diphenylallyl)amino)-2-phenylacetate]	38.4	30.1	–
C[C@@H](NCC=C(c1ccccc1)c1ccccc1)c1ccc(N)cc1 [Compound 48, (R)-4-(1-((3,3-diphenylallyl)amino)ethyl)aniline]	53.5	28.2	–
C[C@@H](NC/C=C/c1ccc(-c2ccccc2)cc1)c1ccccc1 [Compound 31, (R,E)-3-([1,1′-biphenyl]-4-yl)-N-(1-phenylethyl)prop-2-en-1-amine]	35.6	6.36	–
CC(NC(=O)CC(c1ccccc1)c1ccccc1)c1cccs1 (stereo not drawn) [Compound 14, 3,3-diphenyl-N-(1-(thiophen-2-yl)ethyl)propanamide]	–	23.3	–
C[C@@H](NC/C=C(/c1ccccc1)c1ccc([N+](=O)[O-])cc1)c1ccccc1 [Compound 49, (R,Z)-3-(4-nitrophenyl)-3-phenyl-N-(1-phenylethyl)prop-2-en-1-amine]	36.8	20.1	–
COC(=O)[C@H](NC/C=C/c1ccccc1)c1ccccc1 [Compound 40, (R)-methyl 2-(cinnamylamino)-2-phenylacetate]	11	9.46	–
CC(C)=CCC/C(C)=C/CN[C@H](C)c1ccccc1 [Compound 21, (R,E)-3,7-dimethyl-N-(1-phenylethyl)octa-2,6-dien-1-amine]	3.75	8.29	–

Structure (SMILES)	inhibition at 4 µM [1] [%]	inhibition at 4 µM [2] [%]	% Mislocalization of K-ras when treated with 4 μM compound [2] [%]
C[C@@H](NCC=C(c1ccccc1)c1ccccc1)c1ccc([N+](=O)[O-])cc1 [Compound 47]	70.6	34	–
CC(NCC=C(c1ccccc1)c1ccccc1)c1ccccc1 (stereo not drawn) [Compound 12, 3,3-diphenyl-N-(1-phenylethyl)prop-2-en-1-amine hydrochloride]	55.1	37.7	–
C[C@@H](NCC1CCCCC1)c1ccccc1 [Compound 38, (R)—N-(cyclohexylmethyl)-1-phenylethanamine]	32.7	9.67	–
C[C@@H](NC/C=C(/c1ccccc1)c1ccc(N)cc1)c1ccccc1 [Compound 50, (R,Z)-4-(1-phenyl-3-((1-phenylethyl)amino)prop-1-en-1-yl)aniline]	22.6	6.61	–
CC(C)=CCC/C(C)=C/CC/C(C)=C/CN[C@H](C)c1ccccc1 [Compound 28, (2E,6E)-3,7,11-trimethyl-N—((R)-1-phenylethyl)dodeca-2,6,10-trien-1-amine]	38	34.9	–
CC(CNCC=C(c1ccccc1)c1ccccc1)c1ccccc1 (stereo not drawn) [Compound 30, 3,3-diphenyl-N-(2-phenylpropyl)prop-2-en-1-amine]	49.1	26.5	–
C[C@@H](NC/C=C/c1ccccc1)c1ccccc1 [Compound 18, (R,E)-3-phenyl-N-(1-phenylethyl)prop-2-en-1-amine]	-2.54	17.6	–
CC(NCCCc1ccccc1)c1ccccc1 (stereo not drawn) [Compound 11, 3-phenyl-N-(1-phenylethyl)propan-1-amine hydrochloride]	42.9	32.4	–
C[C@H](OCC=C(c1ccccc1)c1ccccc1)c1ccccc1 [Compound 23, (S)-(3-(1-phenylethoxy)prop-1-ene-1,1-diyl)dibenzene]	-0.95	10.3	–
C[C@H](NC/C=C/c1ccccc1)c1ccccc1 [Compound 19, (S,E)-3-phenyl-N-(1-phenylethyl)prop-2-en-1-amine]	11.3	16.5	–
CC(C(=O)NCC(c1ccccc1)c1ccccc1)c1ccccc1 (stereo not drawn) [Compound 02]	–	13.2	–
CC(NC(=O)CCc1ccccc1)c1ccccc1 (stereo not drawn) [Compound 06, 3-phenyl-N-(1-phenylethyl)propanamide]	–	28.9	–
C[C@H](NCCC(c1ccccc1)c1ccccc1)c1ccccc1.Cl [Compound 09, (S)-3,3-diphenyl-N-(1-phenylethyl)propan-1-amine hydrochloride]	–	–	20.41
CC(NCCC(c1ccccc1)c1ccccc1)c1cccs1 (stereo not drawn) [Compound 15, 3,3-diphenyl-N-(1-(thiophen-2-yl)ethyl)propan-1-amine hydrochloride]	–	25.1	–
c1ccc(CNCCC(c2ccccc2)c2ccccc2)cc1 [Compound 10, N-benzyl-3,3-diphenylpropan-1-amine]	–	20.2	–
C[C@H](NC(=O)CC(c1ccccc1)c1ccccc1)c1ccccc1 [Compound 04, (S)-3,3-diphenyl-N-(1-phenylethyl)propanamide]	–	9.73	–
CC(CNCC(c1ccccc1)c1ccccc1)c1ccccc1 (stereo not drawn) [Compound 07, N-(2,2-diphenylethyl)-2-phenylpropan-1 amine hydrochloride]	–	21.9	–
